Measurements taken from patent publication US20210221848A1, “POLYMYXIN DERIVATIVES AND THEIR USE IN COMBINATION THERAPY TOGETHER WITH DIFFERENT ANTIBIOTICS” (priority 2014, published 2021).

Assays:
[1] = test system: P. aeruginosa; conditions: absence of a second agent, Table 6B
[2] = test system: E. coli; conditions: absence of a second agent, Table 6B
[3] = test system: P. aeruginosa ATCC 27853; experiment: In vivo efficacy, thigh infection in mice, IV dosing, 9 h model; design: species or system Pseudomonas aeruginosa; conditions: mouse thigh, dose 3.4 mg/kg drug base IV at 1, 3.5 and 6 h post-infection
Procedure: Compounds were administered in solution by intravenous (IV) bolus injection into the lateral tail vein. […] At 1 hour post infection, 4 animals were humanely euthanized using pentabarbitone overdose to provide a pre-treatment control group. At 9 hours post infection, the clinical condition of all animals was assessed prior to them being humanely euthanized by pentabarbitone overdose. Animal weight was determined before both thighs were removed and weighed individually. Individual thigh tissue samples were homogenized in ice cold sterile phosphate buffered saline. Thigh homogenates were then quantitatively cultured onto cystine lactose electrolyte deficient (CLED) agar and incubated at 37° C. for 24 hours before colonies were counted.

[4] = test system: E. coli; experiment: MIC in the presence of a fixed concentration (2 μg/mL) of Rifampicin; format: cell-based, Escherichia coli; conditions: Rifampicin 2 μg/mL
[5] = test system: K. pneumoniae; conditions: absence of a second agent, Table 6B
[6] = test system: A. baumannii; conditions: absence of a second agent, Table 6B
[7] = test system: K. pneumoniae; experiment: MIC in the presence of a fixed concentration (2 μg/mL) of Rifampicin; format: cell-based, Klebsiella pneumoniae; conditions: Rifampicin 2 μg/mL
[8] = test system: A. baumannii; experiment: MIC in the presence of […] of rifampicin; format: cell-based, Acinetobacter baumannii
[9] = test system: Escherichia coli ATCC 25922; conditions: mouse thigh, 1.47 mg/kg/dose free base IV at 1, 3.5 and 6 h post-infection, 9 h model
[10] = test system: HK-2 cell line; experiment: In vitro renal cell toxicity assay (resazurin reduction)
Procedure: MICs were determined as described herein. HK-2 cell IC50 values were determined as described herein. Values are reported relative to Polymyxin B.

[11] = A. baumannii ATCC BAA-747, Table 5C
[12] = A. baumannii ATCC BAA-747, Table 5D
[13] = A. baumannii NCTC 13424, Table 5C
[14] = A. baumannii NCTC 13424, Table 5D

Substance | MIC, P. aeruginosa ATCC 27853 [1] | MIC, P. aeruginosa CCUG 59347 [1] | MIC, E. coli ATCC 25922 [2] | MIC, E. coli NCTC 13441 [2] | Log reduction from vehicle (CFU/g) [3] | MIC in combination with Rifampicin, E. coli ATCC 25922 ([4]; Table 5C) | MIC in combination with Rifampicin, E. coli ATCC 25922 ([4]; Table 5D) | MIC in combination with Rifampicin, E. coli NCTC 13441 ([4]; Table 5C) | MIC in combination with Rifampicin, E. coli NCTC 13441 ([4]; Table 5D) | MIC, K. pneumoniae ATCC 4352 [5] | MIC, K. pneumoniae ATCC BAA-2146 [5] | MIC, A. baumannii ATCC BAA-747 [6] | MIC, A. baumannii NCTC 13424 [6] | MIC in combination with Rifampicin, K. pneumoniae ATCC 4352 ([7]; Table 5C) | MIC in combination with Rifampicin, K. pneumoniae ATCC 4352 ([7]; Table 5D) | MIC in combination with Rifampicin, K. pneumoniae ATCC BAA-2146 ([7]; Table 5C) | MIC in combination with Rifampicin, K. pneumoniae ATCC BAA-2146 ([7]; Table 5D) | MIC in combination with Rifampicin, A. baumannii ATCC BAA-747 [8, 11] | MIC in combination with Rifampicin, A. baumannii ATCC BAA-747 [8, 12] | MIC in combination with Rifampicin, A. baumannii NCTC 13424 [8, 13] | also measured
(cis-5-cyclohexyl- piperidine)-3-carbonyl polymyxin B nonapeptide [Example D11] | 0.5 micrograms/mL | 0.5 micrograms/mL | 0.25 micrograms/mL | 0.25 micrograms/mL | 3.86 log10 CFU/g | ≤0.015 micrograms/mL | 0.125 micrograms/mL | 0.06 micrograms/mL | 0.06 micrograms/mL | 0.25 micrograms/mL | 0.25 micrograms/mL | 1 micrograms/mL | 0.5 micrograms/mL | 0.06 micrograms/mL | 0.125 micrograms/mL | 1 micrograms/mL | 0.5 micrograms/mL | 0.06 micrograms/mL | 0.125 micrograms/mL | 0.5 micrograms/mL | MIC in combination with Rifampicin, A. baumannii NCTC 13424 [8, 14]: 0.25 micrograms/mL
(S)-1-benzyl piperazine-2-carbonyl polymyxin B nonapeptide [Example D52] | 0.5 micrograms/mL | 0.5 micrograms/mL | 0.125 micrograms/mL | 0.125 micrograms/mL |  |  |  |  |  | 0.125 micrograms/mL | 0.25 micrograms/mL | 0.5 micrograms/mL | 0.25 micrograms/mL |  |  |  |  |  |  |  | Mean log10 CFU reduction vs. control [9]: 4.04 log10 CFU
1,2,3,4- tetrahydroisoquinoline- 4-carbonyl polymyxin B nonapeptide [Example D15] | 0.25 micrograms/mL | 0.5 micrograms/mL | 0.25 micrograms/mL | 0.5 micrograms/mL | 3.89 log10 CFU/g | ≤0.015 micrograms/mL | ≤0.015 micrograms/mL | 0.03 micrograms/mL | 0.03 micrograms/mL |  |  | 2 micrograms/mL | 2 micrograms/mL | 0.03 micrograms/mL | ≤0.015 micrograms/mL | 0.125 micrograms/mL | 0.125 micrograms/mL | ≤0.015 micrograms/mL | ≤0.015 micrograms/mL | ≤0.015 micrograms/mL | HK-2 IC50 rel to PMB [10]: 17; MIC in combination with Rifampicin, A. baumannii NCTC 13424 [8, 14]: ≤0.015 micrograms/mL
